# “And” between values parts separate entries of the source, which are not always exact repeats. Equal entries are not always repeated.
# What was measured:
# [1] = tested on: thrombin mutant S195A; assay: Rapid kinetics (stopped-flow) of FPR binding to thrombin
# Description: An important validation of the method is offered by application to a case where all rate constants have been determined from analysis of the two relaxations (Equations 3 and 4). In this case, one can assume no knowledge of the fast relaxation and consider only the slow relaxation and equilibrium titrations. We illustrate this point using FPR binding to the thrombin mutant S195A, inactivated at the catalytic S195 to prevent hydrolysis ([30]). Two relaxations were reported for this case, along with equilibrium titrations (Fig. 3, A and B). Analysis of the slow relaxation α2(x) yields α(0) = 0.60 ± 0.06 s^−1, α(∞) = 17 ± 2 s^−1, xm = 4.3 ± 0.4 μM, and α(xm) = 8.8 ± 0.9 s^−1 (Fig. 3A and Table 2). […] Interpretation of the binding mechanism in terms of CS gives k12 = 17 ± 2 s^−1 and koff = 0.60 ± 0.06 s^−1. Application of Equation 11 yields kon = 2.4 ± 0.2 μM^−1s^−1 and Equation 9 gives αˆ(0)=k12+k21 = 19 ± 2 s^−1 from which a value of k21 = 2.0 ± 0.2 s^−1 can be obtained (Table 2). These values are in excellent agreement with the ones reported originally from analysis of the two independent relaxations (Table 2) ([30]). When used in Equation 3 to predict the dependence of the fast relaxation α1(x) on [FPR], the curve (discontinuous line) deviates little from experimental data (Fig. 3A, top portion of the panel). Values derived from analysis of the two relaxations are obviously more rigorous and should be preferred when available, but the accuracy of values obtained by application of the method based on Equation 11 is noteworthy. The discrepancies in Table 2 between values of k21 for CS or koff and k32 for IF are small and the fast relaxation ( α1 in Fig. 3A) predicted from knowledge of a single, saturable relaxation ( α2 in Fig. 3A), and equilibrium binding measurements (Fig. 3B) is in excellent agreement with experimental data.
# Figure 3 Binding of FPR to thrombin.A, rapid kinetics of FPR binding to thrombin showing the fast ( α1 ) and slow ( α2 ) relaxations defining a mechanism of binding consistent with IF or CS (see also Fig. 1A). Continuous lines depict Equations 3 and 4 in the original report ([30]) with best-fit parameter values of Equation 1 or Equation 2 listed in Table 2. […] The discontinuous line for the slow relaxation was drawn with the empirical expression [α(0)xm+α(∞)x]/(xm+x) , where x = [FPR], with best-fit parameters listed in Table 2. The discontinuous line for the fast relaxation was drawn using Equation 3 with the four independent rate constants obtained from application of Equation 11 (Table 2). The predicted fast relaxation (discontinuous line) approximates quite well the actual experimental data and lends confidence to the validity of the method. B, fractional saturation of FPR binding to thrombin. […] This value, together with the parameters derived from analysis of the slow relaxation in panel A, allows for derivation of the value of kon from Equation 11. The four independent rate constants derived from application of the method compare well with the values determined from application of Equations 3 and 4 in the original report ([30]). Data in panels A and B were taken from ([30]) and were obtained under the following experimental conditions: 400 mM ChCl, 50 mM Tris, 0.1% PEG8000, pH 8, at 15 °C. CS, conformational selection; FPR, H-D-Phe-Pro-Arg-p-nitroanilide; IF, induced fit.
# (§1) The data analyzed in this study, that is, FPR binding to prethrombin-2, prothrombin, and thrombin (Figs. 2, A and B and 3, A and B) were taken from ([30]) without modification. The methodology used to produce the recombinant proteins, measure FPR binding by stopped-flow or equilibrium titrations is reported in ([30]) and references therein. Values of the slow relaxation α(x) (Fig. 1, A and B, 2A and 3A) are measured by stopped-slow as a function of the ligand concentration and derived from fit of the time evolution of the interaction according to the expression ([1])(12) A(x,t)=A0(x)+A1(x)exp{−α(x)t}
# [2] = tested on: prethrombin-2 (S195A mutant); assay: Rapid kinetics (stopped-flow) of FPR binding to prethrombin-2
# Description: Rapid kinetics of FPR binding to thrombin resolved the two independent relaxations (Equations 3 and 4) for CS and the four independent rate constants. On the other hand, similar measurements for prethrombin-2 produced only a saturable relaxation increasing with [FPR] (Fig. 2A) ([30]), thereby preventing resolution of the four independent constants and a full comparison with the mature protease thrombin. This situation provides an ideal test for application of the method based on Equation 11. The saturable relaxation for FPR binding to prethrombin-2 increases from α(0) = […] to α(∞) = 150 ± 20 s^−1, with a midpoint xm = 200 ± 20 μM and α(xm) = 88 ± 9 s^−1 (Fig. 2A and Table 2). […] Interpretation of the saturable relaxation in terms of CS gives k12 = 150 ± 20 s^−1 and koff = 25 ± 3 s^−1. Application of Equation 11 then yields kon = 4.0 ± 0.4 μM^−1s^−1 and Equation 9 gives αˆ(0)=k12+k21 = 890 ± 90 s^−1, so k21 = 740 ± 70 s^−1 (Table 2). The value of kon is almost identical to that reported for the mature protease thrombin (2.6 ± 0.3 μM^−1s^−1), whilst the value of koff is 40-fold higher (25 ± 3 s^−1 versus 0.60 ± 0.06 s^−1) ([30]). […] The conclusion is independent of whether FPR binding to prethrombin-2 is interpreted according to CS or IF. Application of the conversion formulas in Table 1 gives rate constants for IF equal to kon = 4.0 ± 0.4 μM^−1s^−1, koff = 765 ± 80 s^−1, k23 = 120 ± 10 s^−1, and k32 = 29 ± 3 s^−1 (Table 2), thereby making the contribution of a decreased rate of dissociation in the protease even more evident. Importantly, the two sets of rate constants for IF and CS yield the same value for Kd,app (Table 2), as shown by application of Equation 10 and the conversion formulas in Table 1. The importance of koff in setting the difference between ligand binding to prethrombin-2 and thrombin was anticipated by previous studies ([30]). The method based on Equation 11 provides a quantitative estimate of the difference and adds rigor to previous conclusions.
# Figure 2 Binding of FPR to thrombin zymogens.A, rapid kinetics of FPR binding to the zymogens prothrombin (closed circles) and prethrombin-2 (open circles), showing a saturable relaxation associated with the interaction. The lack of information on a fast relaxation increasing linearly with [FPR] prevented assignment of the value of kon in the original report ([30]). Curves were drawn with the empirical expression [α(0)xm+α(∞)x]/(xm+x) , where x =[FPR], with best-fit parameters listed in Table 2. B, fractional saturation of FPR binding to prothrombin (closed circles) and prethrombin-2 (open circles). These values, together with the parameters derived from the plots in panel A, allow for derivation of the value of kon from Equation 11. […] Data in panels A and B were taken from ([30]) and were obtained under the following experimental conditions: 400 mM ChCl, 50 mM Tris, 0.1% PEG8000, pH 8, at 15 °C. CS, conformational selection; FPR, H-D-Phe-Pro-Arg-p-nitroanilide; IF, induced fit.
# as §1
# [3] = model independent, 400 mM ChCl, 50 mM Tris, 0.1% PEG8000, pH 8, 15 °C, fit of data from ref 30
# [4] = model independent, pH 8, 15 °C, fit of data from ref 30
# [5] = IF, conversion formulas of Table 1
structure (smiles),measurement,setting,value
"N=C(N)NCCC[C@H](NC(=O)[C@@H]1CCCN1C(=O)[C@H](N)Cc1ccccc1)C(=O)Nc1ccc([N+](=O)[O-])cc1 [FPR, H-D-Phe-Pro-Arg-p-nitroanilide]",αˆ(0)=k12+k21,"[1]; CS, from Equation 9",19 ± 2 s⁻¹
same,k12,"[1]; CS, method of this paper",17 ± 2 s⁻¹
same,k21,"[1]; CS, method of this paper",2.0 ± 0.2 s⁻¹
same,koffCS,"[1]; CS, method of this paper",0.60 ± 0.06 s⁻¹
same,konCS,"[1]; CS, method of this paper (Equation 11)",2.4e+06 ± 200000 M⁻¹ s⁻¹
same,k23,"[1]; IF, method of this paper",13 ± 1 (13 ± 1) s^−1
same,k32,"[1]; IF, method of this paper",4.4 ± 0.4 s⁻¹
same,koffIF,"[1]; IF, method of this paper",2.6 ± 0.3 s⁻¹
same,konIF,"[1]; IF, method of this paper",2.4e+06 ± 200000 M⁻¹ s⁻¹
same,kon,"[1]; model independent, derived from Equation 11",2.4e+06 ± 200000 M⁻¹ s⁻¹
same,"α(0), lower asymptote of slow relaxation",[1]; [3],0.60 ± 0.06 s⁻¹
same,"α(∞), asymptote of slow relaxation",[1]; [3],17 ± 2 s⁻¹
same,"xm, midpoint of the slow relaxation",[1]; [4],4.3 ± 0.4 µM
same,"α(xm), slow relaxation at midpoint",[1]; [4],8.8 ± 0.9 s⁻¹
same,αˆ(0)=k12+k21,"[2]; CS, from Equation 9",890 ± 90 s⁻¹
same,k12,"[2]; CS, method of this paper",150 ± 20 s⁻¹ and 150 ± 10 s⁻¹
same,k21,"[2]; CS, method of this paper",740 ± 70 s⁻¹
same,koffCS,"[2]; CS, method of this paper",25 ± 3 s⁻¹
same,konCS,"[2]; CS, method of this paper",4e+06 ± 400000 M⁻¹ s⁻¹
same,koff higher for prethrombin-2 than for thrombin,"[2]; CS, prethrombin-2 versus thrombin",40 fold
same,k23,[2]; [5],120 ± 10 s⁻¹
same,k32,[2]; [5],29 ± 3 s⁻¹

# — paper PMC10979105, “A simple method to resolve rate constants when the binding mechanism obeys induced fit or conformational selection” (The Journal of Biological Chemistry, 2024)
